pIC50: −log10 of the molar value.
What was measured:
MOLP-8 = assay: In vitro cell viability assay (CellTiter-Glo, ATP levels), multiple myeloma cells; assay type: cell-based; settings: Homo sapiens, MOLP-8, 168 h, 7-day incubation, CellTiter-Glo, average values; read-out: MOLP-8 IC50
Procedure: (§1) In Vitro Cell Viability Assay
(§2) The present disclosure provides a method for inhibiting cell viability, as measured by ATP levels. The method for inhibiting cell viability is drawn to contacting various cancer cells with the compounds described herein at various concentrations. The cancer cell lines were maintained in culture conditions at 37° C. in an atmosphere of 5% CO2 in air. The cells growing in an exponential growth phase were harvested and counted for plating. Compounds were incubated in two cancer cell types representing multiple myeloma (MOLP-8) and triple negative breast cancer (DU4475). Cells were plated at an optimized cell numbers per well in 96-well plates and allowed to attach to the plates overnight at approximately 80% confluency.
(§3) After addition of compounds, plates were incubated for 7-day. At the end of incubation period on day 8, media was removed and replaced with a solution of CellTiter-Glo™ reagent (Promega®) according to protocol. Luminescence was read using an EnVision® multi-label plate reader (Perkin-Elmer®), and signal intensity was calculated relative to positive and negative control wells. Cisplatin was included as the positive control. A dose-response calculation was performed in a non-linear regression fit and by using the Hill equation to calculate a concentration-response curve and 50% inhibitory concentration (IC50) values for each compound.
(§4) The average IC50 values of compounds 1-15 in multiple myeloma (MOLP-8) and triple negative breast cancer (DU4475) cells are shown in Table 1.

[1] = tested on: HCT116 (colorectal cancer) cells; assay: Resazurin-based cell viability assay using colorectal cancer cells; settings: Homo sapiens, HCT-116, 72 hr incubation
Procedure: Determination of Potency of Compounds in Cell Viability Assay Using Colorectal Cancer Cells
The blue dye resazurin-based assay was performed to determine cell viability and used according to manufacture protocol (Sigma®). HCT116 (colorectal cancer) cells were seeded in the DMEM medium (10% FBS serum). Approximately 1,500 cells were plated per well in 96 well plates. Cells were allowed to grow at 37° C. for 24 hr in 5% CO2 environment in a humidified incubator. Serially diluted compounds (100 μL) were added to the culture plate after 24 hr. After addition of compounds, plates were incubated for 72 hr. Experiment was terminated at the designated incubation time by replacing the medium with 100 μL of 1 mM of resazurin (Sigma®) prepared in culture medium (DMEM) and were further incubated in culture conditions for 4-6 hours. Fluorescence was recorded using a multimodal plate reader (Biotek Synergy Neo®) at an excitation wavelength of 535 nm and emission wavelength of 590 nm to obtain relative fluorescence units. Data analysis was done by subtracting the background fluorescence (medium blank) value from each reading and then normalizing with the vehicle control (DMSO treated cells) to obtain percent survival/proliferation. IC50 was calculated from percent survival values using GraphPad Prism® (see Table 1).

DU4475 = assay: In vitro cell viability assay (CellTiter-Glo, ATP levels), triple negative breast cancer cells; assay type: cell-based; settings: Homo sapiens, DU-4475, 168 h, 7-day incubation, CellTiter-Glo, average values; read-out: DU4475 IC50
Procedure: as §1, §2, §3, §4

Row | Compound | pIC50 (MOLP-8) | pIC50 [1] | pIC50 (DU4475)
1 | O=C1C=CCCN1C(=O)/C=C/c1ncccn1 [Compound 7, (E)-1-(3-(pyrimidin-2-yl)acryloyl)-5,6-dihydropyridin-2(1H)-one] | 6.24 | 5.82 | 6.31
2 | O=C1C=CCCCN1C(=O)/C=C/c1cnc2ccccc2c1 [Compound 3, (E)-1-(3-(quinolin-3-yl)acryloyl)-1,5,6,7-tetrahydro-2H-azepin-2-one] | 6.44 | 5.77 | 6.12
3 | O=C1C=CCCCN1C(=O)/C=C/c1ccncc1 [Compound 5, (E)-1-(3-(pyridin-4-yl)acryloyl)-1,5,6,7-tetrahydro-2H-azepin-2-one] | 6.31 | 5.70 | 6.24
4 | O=C1C=CCCN1C(=O)/C=C/c1cnc2c(c1)OCCO2 [Compound 24, (E)-1-(3-(2,3-dihydro-[1,4]dioxino[2,3-b]pyridin-7-yl)acryloyl)-5,6-dihydropyridin-2(1H)-one] | 6.49 | 5.72 | 6.17
5 | O=C1C=CCCCN1C(=O)/C=C/c1ccccn1 [Compound 8, (E)-1-(3-(pyridin-2-yl)acryloyl)-1,5,6,7-tetrahydro-2H-azepin-2-one] | 6.39 | 5.82 | 6.30
6 | CC(C)(C)/C=C/C(=O)N1CCC=CC1=O [Compound 28, (E)-1-(4,4-dimethylpent-2-enoyl)-5,6-dihydropyridin-2(1H)-one] | 6.31 | 5.45 | 5.86
7 | O=C1C=CC(F)CN1C(=O)/C=C/c1ncccn1 (stereo not drawn) [Compound 37, (E)-5-fluoro-1-(3-(pyrimidin-2-yl)acryloyl)-5,6-dihydropyridin-2(1H)-one] | 6.96 | 6.06 | 6.38
8 | O=C1C=CCCN1C(=O)/C=C/c1cccnn1 [Compound 27, (E)-1-(3-(pyridazin-3-yl)acryloyl)-5,6-dihydropyridin-2(1H)-one] | 6.12 | 5.72 | 6.02
9 | O=C1C=CCCCN1C(=O)/C=C/c1cncc2ccccc12 [Compound 12, (E)-1-(3-(isoquinolin-4-yl)acryloyl)-1,5,6,7-tetrahydro-2H-azepin-2-one] | 6.05 | 6.02 | 6.22
10 | COc1cc(/C=C/C(=O)N2CC(C)(C)C=CC2=O)cc2c1OCCO2 [Compound 30, (E)-1-(3-(8-methoxy-2,3-dihydrobenzo[b][1,4]dioxin-6-yl)acryloyl)-5,5-dimethyl-5,6-dihydropyridin-2(1H)-one] | 5.55 | 5.00 | 5.26
11 | O=C1C=CCCCN1C(=O)/C=C/c1cnc2c(c1)OCCO2 [Compound 26, (E)-1-(3-(2,3-dihydro-[1,4]dioxino[2,3-b]pyridin-7-yl)acryloyl)-6,7-dihydro-1H-azepin-2(5H)-one] | 6.77 | 5.47 | 6.20
12 | O=C1C=CCCN1C(=O)/C=C/c1ccc2c(n1)OCCO2 [Compound 21, (E)-1-(3-(2,3-dihydro-[1,4]dioxino[2,3-b]pyridin-6-yl)acryloyl)-5,6-dihydropyridin-2(1H)-one] | 6.17 | 5.50 | 6.28
13 | O=C1C=CCCN1C(=O)/C=C/C1CCNCC1 [Compound 20, (E)-1-(3-(piperidin-4-yl)acryloyl)-5,6-dihydropyridin-2(1H)-one] | 6.16 | 5.67 | 5.88
14 | O=C1C=CCCCN1S(=O)(=O)/C=C/c1ccccc1 [Compound 14, (E)-1-(styrylsulfonyl)-1,5,6,7-tetrahydro-2H-azepin-2-one] | 5.45 | 5.15 | 5.52
15 | Cc1noc(/C=C/C(=O)N2CCCC=CC2=O)n1 [Compound 17, (E)-1-(3-(3-methyl-1,2,4-oxadiazol-5-yl)acryloyl)-1,5,6,7-tetrahydro-2H-azepin-2-one] | 6.48 | 5.23 | 5.94

Further lines, results first:

Row | pIC50 (MOLP-8) | pIC50 [1] | pIC50 (DU4475) | Compound
16 | 5.87 | 5.15 | 5.76 | CC1(C)C=CC(=O)N(C(=O)/C=C/C2CCN(C(=O)Nc3ccc(F)cc3)CC2)C1 [Compound 70, (E)-4-(3-(3,3-dimethyl-6-oxo-3,6-dihydropyridin-1(2H)-yl)-3-oxoprop-1-en-1-yl)-N-(4-fluorophenyl)piperidine-1-carboxamide]
17 | 6.02 | 5.37 | 5.79 | C/C(=C\C1CCN(C(=O)Nc2ccc(F)cc2)CC1)C(=O)N1CCC=CC1=O [Compound 73, (E)-N-(4-fluorophenyl)-4-(2-methyl-3-oxo-3-(6-oxo-3,6-dihydropyridin-1(2H)-yl)prop-1-en-1-yl)piperidine-1-carboxamide]
18 | 6.02 | 5.31 | 5.82 | C/C(=C/C1CCN(C(=O)Nc2ccc(F)cc2)CC1)C(=O)N1CCC=CC1=O [Compound 78]
19 | 5.36 | 5.01 | 5.32 | CC(C)(C)OC(=O)N1CCC(/C=C(\C(=O)N2CCC=CC2=O)c2ccccc2)CC1 [Compound 92, (Z)-tert-butyl 4-(3-oxo-3-(2-oxo-5,6-dihydropyridin-1(2H)-yl)-2-phenylprop-1-enyl)piperidine-1-carboxylate]
20 | 6.25 | 5.73 | 6.00 | COc1cc(/C=C/S(=O)(=O)N2CCC=CC2=O)cc2c1OCCO2 [Compound 76, 1-{[(E)-2-(8-methoxy-2,3-dihydro-1,4-benzodioxin-6-yl)ethenyl]sulfonyl}-5,6-dihydropyridin-2(1H)-one]
21 | 6.25 | 5.67 | 6.14 | Cn1ccc(/C=C/C(=O)N2CCC=CC2=O)n1 [Compound 53, 1-[(2E)-3-(1-methyl-1H-pyrazol-3-yl)prop-2-enoyl]-5,6-dihydropyridin-2(1H)-one]
22 | 5.48 | 5.12 | 5.26 | C/C(=C\C1CCN(CC2CC2)CC1)C(=O)N1CCC=CC1=O [Compound 77, (E)-1-(3-(1-(cyclopropylmethyl)piperidin-4-yl)-2-methylacryloyl)-5,6-dihydropyridin-2(1H)-one]
23 | 5.57 | 4.99 | 5.35 | C/C(=C\C1CCN(C(=O)OC(C)(C)C)CC1)C(=O)N1CCC=CC1=O [Compound 72, tert-butyl (E)-4-(2-methyl-3-oxo-3-(6-oxo-3,6-dihydropyridin-1(2H)-yl)prop-1-en-1-yl)piperidine-1-carboxylate]
24 | 6.17 | 5.87 | 6.28 | O=C1C=CCCN1C(=O)/C=C/C1CCN(S(=O)(=O)c2ccccc2)CC1 [Compound 57, (E)-1-(3-(1-(phenylsulfonyl)piperidin-4-yl)acryloyl)-5,6-dihydropyridin-2(1H)-one]
25 | 6.14 | 5.49 | 5.87 | O=C1C=CCCN1C(=O)/C=C/C1CCN(C2COC2)CC1 [Compound 45, (E)-1-(3-(1-(oxetan-3-yl)piperidin-4-yl)acryloyl)-5,6-dihydropyridin-2(1H)-one]
26 | 6.54 | 5.68 | 6.32 | COc1cnc(/C=C/C(=O)N2CCC=CC2=O)nc1 [Compound 63, (E)-1-(3-(5-methoxypyrimidin-2-yl)acryloyl)-5,6-dihydropyridin-2(1H)-one]
27 | 5.83 | 5.29 | 5.57 | Cc1n[nH]c(C)c1/C=C/C(=O)N1CCC=CC1=O [Compound 81, (E)-1-(3-(3,5-dimethyl-1H-pyrazol-4-yl)acryloyl)-5,6-dihydropyridin-2(1H)-one]
28 | 5.42 | 5.15 | 5.18 | C/C(=C\C1CCNCC1)C(=O)N1CCC=CC1=O [Compound 88, (E)-1-(2-methyl-3-(piperidin-4-yl)acryloyl)-5,6-dihydropyridin-2(1H)-one 2,2,2-trifluoroacetate]
29 | 7.40 | 6.44 | 7.00 | O=C(/C=C/c1ncccn1)N1CCC=C(Br)C1=O [Compound 40, 3-bromo-1-[(2E)-3-(pyrimidin-2-yl)prop-2-enoyl]-5,6-dihydropyridin-2(1H)-one]
30 | 5.99 | 5.57 | 5.72 | C/C(=C/C1CCN(CC2CC2)CC1)C(=O)N1CCC=CC1=O [Compound 79, (Z)-1-(3-(1-(cyclopropylmethyl)piperidin-4-yl)-2-methylacryloyl)-5,6-dihydropyridin-2(1H)-one]

— patent publication US11485725B2, “Derivatives of piperlongumine and uses thereof” (Auransa Inc., priority 2017, dated 2022)
